In publication PMC10037499, “High-Throughput Screen Reveals the Structure–Activity Relationship of the Antimicrobial Lasso Peptide Ubonodin” (ACS Central Science, 2023):
Where a SMILES comes first, the peptide text is derived from it.

Tested on: RNA polymerase (RNAP) in E. coli MC1061
Assay: High-throughput growth-based screen with NGS (enrichment value) for RNA polymerase inhibition
Type: cell-based
Details: log2 of frequency post-IPTG / frequency in cloning transformation library, single mutant library
Summary of the method: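 E. coli MC1061 carrying ubonodin single/double variant plasmid libraries was grown and induced with 10 µM or 100 µM IPTG; surviving colonies were sequenced by NGS. Enrichment value = log2 of variant frequency post-IPTG over frequency in the cloning transformation library; depletion indicates RNAP inhibition.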

Work on CC[C@H](C)[C@@H]1NC(=O)[C@H](CO)NC(=O)CNC(=O)[C@H](CC(=O)O)NC(=O)CNC(=O)CNC(=O)CC[C@@H](C(=O)N[C@@H](Cc2ccc(O)cc2)C(=O)N[C@@H](Cc2ccccc2)C(=O)N[C@@H](CC(N)=O)C(=O)N[C@@H](CCCNC(=N)N)C(=O)N2CCC[C@H]2C(=O)N[C@@H](CCSC)C(=O)N[C@@H](Cc2c[nH]cn2)C(=O)N[C@H](C(=O)N[C@@H](Cc2c[nH]cn2)C(=O)N[C@@H](CC(=O)O)C(=O)N[C@@H](Cc2c[nH]c3ccccc23)C(=O)N[C@@H](CCC(N)=O)C(=O)N[C@H](C(=O)N[C@@H](CCSC)C(=O)N[C@@H](CC(=O)O)C(=O)N[C@@H](CO)C(=O)NCC(=O)N[C@@H](Cc2ccc(O)cc2)C(=O)N[C@@H](Cc2ccc(O)cc2)C(=O)NCC(=O)O)[C@@H](C)CC)[C@@H](C)CC)NC(=O)[C@H](C)NC1=O [WT, ubonodin] (HELM PEPTIDE1{G.G.D.G.S.I.A.E.Y.F.N.R.P.M.H.I.H.D.W.Q.I.M.D.S.G.Y.Y.G}$PEPTIDE1,PEPTIDE1,1:R1-8:R3$$$V2.0; C-terminus assumed) yielded an Enrichment value (induction with 10 μM IPTG) of −4.2 and an Enrichment value (induction with 100 μM IPTG) of −4.3.
